The assay relates to C57BL/6 mice, Adenocarcinoma 755 sc, tumor weight T/C. Kind of assay: NCI In Vivo Anticancer Drug Screen. Data for tumor model Adenocarcinoma 755 (subcutaneous) in C57BL/6 mice. As to conditions: endpoint: mean tumor weight, higher = larger tumour. On the procedure: The antitumor activity of compounds was measured in mice bearing transplantable tumors. Survival or tumor size were measured and the results are expressed as the measurement made in the treated group (T) divided by the measurement made in the vehicle treated control group (C). The tumor model used in this assay is Adenocarcinoma 755 (subcutaneous) in C57BL/6 mice

The mark [1] stands for this setting: dose: 25.0 mg/kg/injection, schedule: Q01DX011 (ip), vehicle: carboxymethylcellulose (CMC).
Where [2] appears, read: dose: 50.0 mg/kg/injection, schedule: Q01DX011 (ip), vehicle: carboxymethylcellulose (CMC).
The mark [3] stands for this setting: dose: 50.0 mg/kg/injection, schedule: Q01DX011 (ip), vehicle: saline.
[4] abbreviates: dose: 100.0 mg/kg/injection, schedule: Q01DX011 (ip), vehicle: saline.
[5] abbreviates: dose: 75.0 mg/kg/injection, schedule: Q01DX011 (ip), vehicle: saline.
The mark [6] stands for this setting: dose: 125.0 mg/kg/injection, schedule: Q01DX011 (ip), vehicle: saline.
[7] abbreviates: dose: 150.0 mg/kg/injection, schedule: Q02DX006 (ip), vehicle: saline.
The mark [8] stands for this setting: dose: 200.0 mg/kg/injection, schedule: Q02DX006 (ip), vehicle: saline.
Setting [9] is: dose: 20.0 mg/kg/injection, schedule: Q01DX011 (ip), vehicle: saline.
Where [10] appears, read: dose: 40.0 mg/kg/injection, schedule: Q01DX011 (ip), vehicle: saline.
Where [11] appears, read: dose: 150.0 mg/kg/injection, schedule: Q01DX011 (ip), vehicle: saline.

Where “and” joins values, the source holds several entries; their conditions need not be identical. Identical values can stand only once.

As to `CCCCNc1nc(N)nc2nc[nH]c12`, the T/C (commonly the ratio of treated to control) is, setting by setting: (dose: 5.0 mg/kg/injection, schedule: Q01DX011 (ip), vehicle: carboxymethylcellulose (CMC)) 106 % of control; (dose: 10.0 mg/kg/injection, schedule: Q01DX011 (ip), vehicle: carboxymethylcellulose (CMC)) 104 % of control; under setting [1], 123 % of control; under setting [2], 78 % of control; (dose: 100.0 mg/kg/injection, schedule: Q01DX011 (ip), vehicle: carboxymethylcellulose (CMC)) 72 % of control.
For `Cc1c2ccccc2c(C)c2c1ccc1ccccc12`, the T/C reads like this: (dose: 9.0 mg/kg/injection, schedule: Q01DX011 (ip), vehicle: saline) 44 % of control; (dose: 19.0 mg/kg/injection, schedule: Q01DX011 (ip), vehicle: saline) 19 % of control.
As for `Cn1cnc([N+](=O)[O-])c1Sc1ccccc1`, the T/C (dose: 25.0 mg/kg/injection, schedule: Q01DX011 (ip), vehicle: saline) was 84 % of control; the T/C under setting [3] is 47 % of control; the T/C under setting [4] is 53 % of control.
With `C1CN1c1nc(N2CC2)nc(N2CC2)n1`, the T/C by setting is: (dose: 0.1 mg/kg/injection, schedule: Q01DX011 (ip), vehicle: saline) 28 % of control; (dose: 0.11 mg/kg/injection, schedule: Q01DX011 (ip), vehicle: saline) 44 % of control; (dose: 0.13 mg/kg/injection, schedule: Q01DX011 (ip), vehicle: saline) 61 % of control; (dose: 0.15 mg/kg/injection, schedule: Q01DX011 (ip), vehicle: saline) 21 % of control; (dose: 0.2 mg/kg/injection, schedule: Q01DX011 (ip), vehicle: saline) 12 % of control; (dose: 0.25 mg/kg/injection, schedule: Q02DX006 (ip), vehicle: saline) 80 % of control. Besides, the T/C was 5 % of control (dose: 0.3 mg/kg/injection, schedule: Q01DX011 (ip), vehicle: saline); 19 % of control (dose: 0.5 mg/kg/injection, schedule: Q01DX011 (ip), vehicle: saline); 121 % of control (dose: 0.5 mg/kg/injection, schedule: Q02DX006 (ip), vehicle: saline).
Consider `Cn1ncc2c(N)ncnc21`, for which the T/C (dose: 20.0 mg/kg/injection, schedule: Q02DX006 (ip), vehicle: other) is 47 % of control and the T/C (dose: 40.0 mg/kg/injection, schedule: Q02DX006 (ip), vehicle: other) is 28 % of control.
For the compound `Clc1cc(N2CC2)nc(N2CC2)n1`, the T/C runs as follows: (dose: 5.0 mg/kg/injection, schedule: Q02DX006 (ip), vehicle: other) 79 % of control; (dose: 7.5 mg/kg/injection, schedule: Q02DX006 (ip), vehicle: other) 72 % of control; (dose: 10.0 mg/kg/injection, schedule: Q02DX006 (ip), vehicle: other) 18 % of control.
As for `CC(C)Sc1nc(N)nc2nc[nH]c12`, the T/C under setting [4] was 7 % of control.
With `CCCCNc1nc(N(C)C)nc2nc[nH]c12`, the T/C was 80 % of control (dose: 37.0 mg/kg/injection, schedule: Q01DX011 (ip), vehicle: saline); 29 % of control under setting [5]; 56 % of control (dose: 90.0 mg/kg/injection, schedule: Q01DX011 (ip), vehicle: saline); 47 % of control under setting [6].
For the compound `N/C(=N\N=C\c1cccc([N+](=O)[O-])c1)N[N+](=O)[O-]`, the T/C reads like this: under setting [7], 24 % of control; under setting [8], 41 % of control.
On to `NNc1nc2nc[nH]c2c(=O)[nH]1`, for which the T/C under setting [3] is 35 % of control.
For the compound `C=CC(COC(C)=O)N1CC1` (stereo unspecified), the T/C runs as follows: (dose: 1.87 mg/kg/injection, schedule: Q01DX011 (oral), vehicle: saline) 107 % of control; (dose: 3.75 mg/kg/injection, schedule: Q01DX011 (oral), vehicle: saline) 56 % of control; (dose: 7.5 mg/kg/injection, schedule: Q01DX011 (oral), vehicle: saline) 70 % of control and 80 % of control.
Turning to `Clc1ccc(N2CCN(CCCN3CCN(c4cccc(Cl)c4)CC3)CC2)cc1`, the T/C (dose: 7.5 mg/kg/injection, schedule: Q01DX011 (ip), vehicle: carboxymethylcellulose (CMC)) is 43 % of control; the T/C (dose: 15.0 mg/kg/injection, schedule: Q01DX011 (ip), vehicle: carboxymethylcellulose (CMC)) was 38 % of control; the T/C (dose: 30.0 mg/kg/injection, schedule: Q01DX011 (ip), vehicle: carboxymethylcellulose (CMC)) was 54 % of control.
In the case of `CCCNc1ncnc2c1cnn2C`, the T/C runs as follows: (dose: 10.0 mg/kg/injection, schedule: Q01DX011 (ip), vehicle: saline) 46 % of control; (dose: 15.0 mg/kg/injection, schedule: Q01DX011 (ip), vehicle: saline) 32 % of control; under setting [9], 13 % of control.
With `O=C([O][Hg][CH2]C1COC([CH2][Hg][O]C(=O)c2ccccc2)CO1)c1ccccc1` (stereo unspecified), the T/C is, setting by setting: (dose: 16.0 mg/kg/injection, schedule: Q01DX009 (ip), vehicle: saline) 82 % of control; (dose: 32.0 mg/kg/injection, schedule: Q01DX009 (ip), vehicle: saline) 77 % of control; (dose: 32.0 mg/kg/injection, schedule: Q01DX010 (ip), vehicle: saline) 48 % of control.
`O=[N+]([O-])c1ccc2c(c1)Cc1c-2cc(Br)c(O)c1Br`: the T/C was 60 % of control (dose: 62.5 mg/kg/injection, schedule: Q01DX011 (ip), vehicle: saline); 58 % of control under setting [6]; 43 % of control (dose: 250.0 mg/kg/injection, schedule: Q01DX011 (ip), vehicle: saline); 33 % of control (dose: 500.0 mg/kg/injection, schedule: Q01DX011 (ip), vehicle: saline).
For `CN1CC(=O)N=C1N`, the T/C (dose: 1000.0 mg/kg/injection, schedule: Q01DX011 (ip), vehicle: saline) was 121 % of control.
For the compound `O=C(O)c1cc(=O)[nH]c(=S)[nH]1`, the T/C is, setting by setting: under setting [9], 91 % of control; (dose: 30.0 mg/kg/injection, schedule: Q01DX011 (ip), vehicle: saline) 121 % of control; under setting [10], 78 % of control; under setting [3], 82 % of control.
As to `O=c1[nH][nH]c(=O)[nH]1`, the T/C was 85 % of control (dose: 200.0 mg/kg/injection, schedule: Q01DX011 (ip), vehicle: saline) and 94 % of control (dose: 225.0 mg/kg/injection, schedule: Q01DX011 (ip), vehicle: saline).
For the compound `[I][Hg][CH2]C1OCCOC1[CH2][Hg][I]` (stereo unspecified), the T/C is 84 % of control (dose: 4.0 mg/kg/injection, schedule: Q01DX011 (ip), vehicle: carboxymethylcellulose (CMC)); 46 % of control (dose: 8.0 mg/kg/injection, schedule: Q01DX011 (ip), vehicle: carboxymethylcellulose (CMC)); 34 % of control (dose: 16.0 mg/kg/injection, schedule: Q01DX011 (ip), vehicle: carboxymethylcellulose (CMC)); 44 % of control (dose: 32.0 mg/kg/injection, schedule: Q01DX011 (ip), vehicle: carboxymethylcellulose (CMC)).
Consider `CCC(C)N1C(=O)CCC1=O` (stereo unspecified), for which the T/C is 102 % of control (dose: 4.7 mg/kg/injection, schedule: Q01DX011 (ip), vehicle: saline); 103 % of control (dose: 9.4 mg/kg/injection, schedule: Q01DX011 (ip), vehicle: saline); 123 % of control (dose: 18.8 mg/kg/injection, schedule: Q01DX011 (ip), vehicle: saline); 119 % of control (dose: 37.5 mg/kg/injection, schedule: Q01DX011 (ip), vehicle: saline); 59 % of control under setting [5]; 95 % of control under setting [11].
Consider `Clc1nc(Cl)c2[nH]cnc2n1`, for which the T/C is, setting by setting: under setting [9], 110 % of control; under setting [10], 82 % of control.
`O=c1[nH]c(=O)c2n[nH]nc2[nH]1`: the T/C under setting [5] is 154 % of control and the T/C under setting [11] was 115 % of control.
For the compound `Cc1ccc(N2CCN(CCCN3CCN(c4ccc(Cl)cc4)CC3)CC2)cc1`, the T/C is 93 % of control (dose: 3.1 mg/kg/injection, schedule: Q01DX011 (ip), vehicle: carboxymethylcellulose (CMC)); 83 % of control (dose: 6.25 mg/kg/injection, schedule: Q01DX011 (ip), vehicle: carboxymethylcellulose (CMC)); 90 % of control (dose: 12.5 mg/kg/injection, schedule: Q01DX011 (ip), vehicle: carboxymethylcellulose (CMC)); 52 % of control under setting [1]; 43 % of control under setting [2].
With `N/C(=N/N=C/c1ccc([N+](=O)[O-])cc1)N[N+](=O)[O-]`, the T/C reads like this: under setting [7], 53 % of control; under setting [8], 37 % of control.

(Values after PubChem BioAssay AID218 (DTP/NCI, 2004).)
